This note sets out measurements from publication PMC6628648, “Enabling microbial syringol conversion through structure-guided protein engineering” (Proceedings of the National Academy of Sciences of the …, 2019).

Assay type in all cases: biochemical, Amycolatopsis sp. ATCC 39116
Experiment [1] concerns the target T1, GcoA variant F169S (Amycolatopsis sp., UniProt P0DPQ7, F169S).
T1 construct: GST (N, cleaved yes); made in house; host or cells: E. coli Rosetta 2 (DE3)
Nature of the experiment: NADH consumption assay (specific activity) with GcoB. The conditions noted are these: saturating (200 µM) substrate, pH 7.5, 25°C.

Another experiment has as its target T2, GcoA variant F169H (Amycolatopsis sp., UniProt P0DPQ7, F169H).
T2 construct: GST (N, cleaved yes); made in house; host or cells: E. coli Rosetta 2 (DE3)
Nature of the experiment: End-point coupling assay (formaldehyde produced per NADH consumed). The conditions noted are these: molar ratio formaldehyde produced per NADH consumed, 200 µM NADH, 200 µM aromatic substrate. On the procedure:
(§1) The [formaldehyde] produced on reaction with GcoA-F169A and substrates was determined using a colorimetric assay with tryptophan ([28], [42]); details are provided in SI Appendix. […]
(§2) vi = Vmax[S]/(KM + [S]) (4) […]
(§3) Formaldehyde determination. A colorimetric assay using tryptophan can be used to quantify the amount of formaldehyde produced in F169 GcoA/B reactions with guaiacol, syringol, or 3MC. 0.2 µM each of F169 GcoA mutants and GcoB were dissolved in air-saturated buffer (25 mM HEPES, 50 mM NaCl) in a cuvette at pH 7.5, 25 °C. 100 µg/mL catalase was added to each reaction to capture any H2O2 formed during the uncoupled reaction. 200 μM NADH was added and the background rate recorded. 100 (guaiacol, syringol, or 3MC) or 200 (syringol) μM of substrate was then added and the reaction monitored until there was no more change, due to either substrate, NADH or O2 depletion, whichever occurred first. 200 µL of the reaction was then quenched by adding 200 µL of a 0.1% tryptophan solution in 50% ethanol and 200 µL of 90% sulfuric acid. Upon thorough mixing, 40 µL of 1% FeCl3 was added. The solution was then incubated in a heating block for 90 min at 70 °C. After cooling, the absorbance was read at 575 nm and the [formaldehyde] calculated by using ε575 nm = 4.2 mM-1 cm-1, obtained with formaldehyde as a standard (1). A negative control included everything but the substrate and was used as a baseline. […]
(§4) The reaction of each aliquot was immediately quenched with 12.5
(§5) μL saturated ammonium sulfate, 7% v/v H2SO4 (pH 2.0) prior to loading onto the HPLC column. [Substrate] disappearance was referenced to GcoA (0.2 µM) and fit to a linear line to determine specific activity.
(§6) Data analysis. The consumption of NADH and subsequent production of formaldehyde and aromatic product were measured in triplicate and the error reported as ±1 standard deviation. To determine the statistical significance between NADH consumption and the products produced, the p-value was determined for all runs containing guaiacol, syringol, and 3MC. These values were calculated using two degrees of freedom, a tail value of two, and assuming a t-statistical value for unequal variances.
(§7) Detection of H2O2 via horseradish peroxidase (HRP) and Amplex Red assay. The reaction between 100 μM guaiacol or 3MC with 0.2 μM F169A/GcoB and 100 μM NADH in air-saturated buffer (25 mM HEPES, 50 mM NaCl, pH 7.5) was monitored continuously in a quartz cuvette, using the NADH consumption assay described above. The same thing was done for syringol, but with either 100 or 200 μM NADH. When there was no longer any change in the spectra, e.g., the reaction was completed, 100 μL was removed from the cuvette and pipetted into a 96-well microplate. A 5 mL solution containing 50 μL of 10 mM Amplex Red (prepared in DMSO and stored at -20 °C) and 100 μL of 10 U/mL HRP was made up in the above buffer. 100 μL of this was added to each of the wells with each reaction sample. The plate was incubated in the dark at room temperature for 30 min, at which point the absorbance at […]
(§8) Table S1. Rate of substrate disappearance or product appearance (specific activity) for F169A.
(§9) Substrate NADH disappearance aromatic substrate disappearance KD (µM) […]
(§10) Table S2. Rates of substrate disappearance and coupling efficiencies for reactions catalyzed by the GcoA-F169 variants.
(§11) GcoA Specific activity Coupling Specific activity Coupling Specific activity (μmol Coupling variant (μmol sec-1 μmol-1 efficiency (μmol sec-1 μmol-1 efficiency sec-1 μmol-1 GcoA)a efficiency GcoA)a (%)b GcoA)a (%)b (%)b […]
(§12) aNADH consumption was monitored continuously over time via UV/vis and quantifying with ε340 = 6.22 mM-1 cm-1 at 25°C, 25 mM HEPES, 50 mM NaCl, pH 7.5 and saturating (200 µM) concentrations of all substrates (syringol, guaiacol, and 3MC). bCalculated as the molar ratio of formaldehyde produced per NADH consumed in a fixed-time assay. Assay conditions: 0.2 µM […]

Experiment [2] concerns the target T1, GcoA variant F169S. Described as above. The conditions noted are these: molar ratio formaldehyde produced per NADH consumed, 200 µM NADH, 200 µM aromatic substrate. The procedure: as §1, §2, §3, §4, §5, §6, §7, §8, §9, §10, §11, §12

T2 sequence (P0DPQ7 whole entry F169H): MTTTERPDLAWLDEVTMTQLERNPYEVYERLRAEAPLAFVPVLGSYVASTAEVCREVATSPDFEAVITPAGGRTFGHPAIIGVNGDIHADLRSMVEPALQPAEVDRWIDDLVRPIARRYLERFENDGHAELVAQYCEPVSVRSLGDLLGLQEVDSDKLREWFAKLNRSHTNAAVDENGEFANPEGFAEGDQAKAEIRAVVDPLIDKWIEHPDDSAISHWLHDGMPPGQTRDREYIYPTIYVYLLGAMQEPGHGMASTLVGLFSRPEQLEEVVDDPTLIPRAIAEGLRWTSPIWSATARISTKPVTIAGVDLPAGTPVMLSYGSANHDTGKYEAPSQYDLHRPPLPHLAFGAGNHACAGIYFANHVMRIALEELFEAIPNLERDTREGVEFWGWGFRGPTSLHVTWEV
T1 sequence (P0DPQ7 whole entry F169S): as the sequence (P0DPQ7 whole entry F169H) above, with H169S counted along it

`COc1cccc(O)c1O` [3MC, 3-methoxycatechol] returned a Specific activity at GcoA variant F169S [1] of 6.0 ± 0.8 μmol sec-1 μmol-1 GcoA. Further, the Coupling efficiency turned out to be 28 ± 20% at GcoA variant F169H and 67 ± 8% at GcoA variant F169S [2].

On to `COc1ccccc1O` [guaiacol, 2-methoxyphenol], for which the Specific activity at GcoA variant F169S [1] is listed as 5.7 ± 0.8 μmol sec-1 μmol-1 GcoA. Also, the results for the Coupling efficiency on GcoA variant F169H and at GcoA variant F169S [2] were 103 ± 10% and 67 ± 8%, respectively.

On to `COc1cccc(OC)c1O` [syringol, 2,6-dimethoxyphenol], for which the Specific activity at GcoA variant F169S [1] is on record as 5.1 ± 0.9 μmol sec-1 μmol-1 GcoA. The Coupling efficiency at GcoA variant F169H is on record as 56 ± 7%; at GcoA variant F169S [2] it was 85 ± 5%.
